# Biological target: T1, p300 (Homo sapiens, UniProt Q09472)
# T1 construct: host or cells: A549 P300 HiBit cells
# Assay: P300 degradation, HiBit technology in A549 P300 HiBit cells (2 h)
# Assay type: cell-based
# Settings: 2 hrs post treatment; for Dmax: A549, A549 P300 HiBit cells; for DC50: A549 P300 HiBit cells
# In short: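 Degradation potency and Dmax came from luminescence after 10 min room-temperature lysis with HiBit detection buffer. Beforehand, HiBit-tagged A549 lines received serial compound dilutions (10 mM DMSO stocks) at 37 °C, 5% CO2. CBP cells were read at 24 h, p300 cells at 2 h.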
# T1 sequence (Q09472 whole entry): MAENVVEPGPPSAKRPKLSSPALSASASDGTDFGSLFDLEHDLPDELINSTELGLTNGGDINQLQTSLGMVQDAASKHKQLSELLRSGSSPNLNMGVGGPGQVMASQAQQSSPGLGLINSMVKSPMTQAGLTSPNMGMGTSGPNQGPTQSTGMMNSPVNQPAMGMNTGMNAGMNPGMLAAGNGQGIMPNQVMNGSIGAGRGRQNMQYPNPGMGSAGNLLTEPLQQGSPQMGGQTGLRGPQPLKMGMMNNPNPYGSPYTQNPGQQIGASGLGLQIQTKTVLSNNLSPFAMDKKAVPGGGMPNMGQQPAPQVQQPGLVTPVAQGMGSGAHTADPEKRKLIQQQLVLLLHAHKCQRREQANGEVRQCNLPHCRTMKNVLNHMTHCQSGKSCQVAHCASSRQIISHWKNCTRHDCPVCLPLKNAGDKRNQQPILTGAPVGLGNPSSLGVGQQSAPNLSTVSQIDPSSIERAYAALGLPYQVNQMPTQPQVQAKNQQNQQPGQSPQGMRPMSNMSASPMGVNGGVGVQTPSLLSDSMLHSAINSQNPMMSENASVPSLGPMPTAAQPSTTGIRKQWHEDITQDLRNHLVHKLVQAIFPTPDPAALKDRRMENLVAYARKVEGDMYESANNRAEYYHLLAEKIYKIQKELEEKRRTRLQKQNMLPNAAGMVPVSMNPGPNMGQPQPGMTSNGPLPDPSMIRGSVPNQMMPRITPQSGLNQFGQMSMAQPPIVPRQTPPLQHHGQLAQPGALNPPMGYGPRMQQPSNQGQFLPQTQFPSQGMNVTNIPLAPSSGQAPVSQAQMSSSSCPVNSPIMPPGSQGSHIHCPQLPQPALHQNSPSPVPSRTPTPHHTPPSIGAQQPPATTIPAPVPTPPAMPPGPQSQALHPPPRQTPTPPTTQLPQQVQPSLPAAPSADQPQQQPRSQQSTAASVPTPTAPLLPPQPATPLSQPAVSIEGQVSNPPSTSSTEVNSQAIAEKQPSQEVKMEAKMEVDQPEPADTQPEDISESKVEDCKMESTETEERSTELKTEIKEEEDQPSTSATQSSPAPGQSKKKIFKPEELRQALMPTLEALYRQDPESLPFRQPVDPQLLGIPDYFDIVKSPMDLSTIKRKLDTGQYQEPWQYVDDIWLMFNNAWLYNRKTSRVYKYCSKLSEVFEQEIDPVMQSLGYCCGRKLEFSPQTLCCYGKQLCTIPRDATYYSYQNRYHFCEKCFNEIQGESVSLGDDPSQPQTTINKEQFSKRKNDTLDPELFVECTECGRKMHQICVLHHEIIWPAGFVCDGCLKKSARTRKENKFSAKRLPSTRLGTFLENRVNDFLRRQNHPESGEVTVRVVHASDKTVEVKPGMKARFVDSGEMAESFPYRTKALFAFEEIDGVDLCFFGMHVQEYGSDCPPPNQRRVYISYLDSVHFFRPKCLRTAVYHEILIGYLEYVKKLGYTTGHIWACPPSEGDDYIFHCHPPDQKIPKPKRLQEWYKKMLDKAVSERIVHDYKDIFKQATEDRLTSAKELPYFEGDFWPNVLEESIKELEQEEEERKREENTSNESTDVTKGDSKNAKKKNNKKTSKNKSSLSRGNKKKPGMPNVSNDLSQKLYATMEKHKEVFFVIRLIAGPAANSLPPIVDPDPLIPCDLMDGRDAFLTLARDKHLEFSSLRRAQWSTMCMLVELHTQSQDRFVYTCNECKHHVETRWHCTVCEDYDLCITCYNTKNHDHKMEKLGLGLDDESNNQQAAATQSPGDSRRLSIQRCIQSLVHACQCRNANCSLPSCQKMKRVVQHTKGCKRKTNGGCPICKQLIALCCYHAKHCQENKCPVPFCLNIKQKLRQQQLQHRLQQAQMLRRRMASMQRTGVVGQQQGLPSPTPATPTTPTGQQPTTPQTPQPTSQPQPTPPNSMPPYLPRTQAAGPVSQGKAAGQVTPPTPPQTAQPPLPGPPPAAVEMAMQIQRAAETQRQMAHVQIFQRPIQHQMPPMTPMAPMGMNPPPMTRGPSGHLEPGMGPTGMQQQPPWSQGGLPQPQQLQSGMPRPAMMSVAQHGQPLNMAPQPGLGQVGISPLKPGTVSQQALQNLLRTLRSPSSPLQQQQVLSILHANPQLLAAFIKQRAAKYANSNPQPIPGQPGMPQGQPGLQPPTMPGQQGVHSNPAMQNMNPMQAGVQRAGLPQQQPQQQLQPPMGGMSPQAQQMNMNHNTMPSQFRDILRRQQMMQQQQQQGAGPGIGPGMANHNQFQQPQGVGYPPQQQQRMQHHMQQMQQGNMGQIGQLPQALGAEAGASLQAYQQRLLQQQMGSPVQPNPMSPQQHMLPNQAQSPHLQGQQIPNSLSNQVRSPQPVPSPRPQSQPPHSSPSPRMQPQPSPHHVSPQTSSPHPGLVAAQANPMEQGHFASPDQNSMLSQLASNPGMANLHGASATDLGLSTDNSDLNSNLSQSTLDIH
Dmax,DC50,Structure (SMILES)
> 80%,1 to 9.9 nM,"Cc1cc(N2CCCc3nc(-c4ccc(C(=O)NCC#Cc5ccc6occ(C7CCC(=O)NC7=O)c6c5)nc4)ncc32)c2cc(C)c(=O)n(C)c2c1 (centres unmarked) [Example B151, N-(3-(3-(2,6-dioxopiperidin-3-yl)benzofuran-5-yl)prop-2-yn-1-yl)-5-(5-(1,3,7-trimethyl-2-oxo-1,2-dihydroquinolin-5-yl)-5,6,7,8-tetrahydro-pyrido[3,2-d]pyrimidin-2-yl)picolinamide]"
> 80%,1 to 9.9 nM,"CCc1cc(N(C)c2ccn(-c3cnc(C(=O)NCC#Cc4cccc(NC5CCC(=O)NC5=O)c4)c(C)c3)c(=O)c2)c2cc(C)c(=O)n(C)c2c1 (centres unmarked) [Example B152, N-(3-(3-((2,6-dioxopiperidin-3-yl)amino)phenyl)prop-2-yn-1-yl)-4-((7-ethyl-1,3-dimethyl-2-oxo-1,2-dihydroquinolin-5-yl) (methyl)amino)-5′-methyl-2-oxo-2H-[1,3′-bipyridine]-6′-carboxamide]"
> 80%,1 to 9.9 nM,"Cc1cc2c(N3CCCc4nc(-c5cnc(C(=O)NCC#Cc6ccc7occ(C8CCC(=O)NC8=O)c7c6)c(Cl)c5)ncc43)cccc2n(C)c1=O (centres unmarked) [Example B155, 3-chloro-5-(5-(1,3-dimethyl-2-oxo-1,2-dihydroquinolin-5-yl)-5,6,7,8-tetrahydro-pyrido[3,2-d]pyrimidin-2-yl)-N-(3-(3-(2,6-dioxopiperidin-3-yl)benzofuran-5-yl)prop-2-yn-1-yl)picolinamide]"
> 80%,10 to 99 nM,"Cc1cc2c(N3CCCc4nc(-c5ccc(C(=O)NCC#Cc6cc7c(C8CCC(=O)NC8=O)cccc7o6)nc5)ncc43)cc(C3CCC(F)(F)CC3)nc2n(C)c1=O (centres unmarked) [Example B158, 5-(5-(2-(4,4-difluorocyclohexyl)-6,8-dimethyl-7-oxo-7,8-dihydro-1,8-naphthyridin-4-yl)-5,6,7,8-tetrahydropyrido[3,2-d]pyrimidin-2-yl)-N-(3-(4-(2,6-dioxopiperidin-3-yl)benzofuran-2-yl)prop-2-yn-1-yl)picolinamide]"
20 to 39%,1 to 9.9 nM,"Cc1cc2c(N3CCCc4nc(-c5ccc(C(=O)NCC#Cc6cc7c(C8CCC(=O)NC8=O)cccn7n6)nc5)ncc43)cc(C3CCOCC3)cc2n(C)c1=O (centres unmarked) [Example B170, 5-(5-(1,3-dimethyl-2-oxo-7-(tetrahydro-2H-pyran-4-yl)-1,2-dihydroquinolin-5-yl)-5,6,7,8-tetrahydropyrido[3,2-d]pyrimidin-2-yl)-N-(3-(4-(2,6-dioxopiperidin-3-yl)pyrazolo[1,5-a]pyridin-2-yl)prop-2-yn-1-yl)picolinamide]"
> 80%,1 to 9.9 nM,"Cc1cc2c(N3CCCc4nc(-c5ccc(C(=O)NCC#Cc6cc7c(C8CCC(=O)NC8=O)cccc7o6)nc5)ncc43)cc(C3CC3)cc2n(C)c1=O (centres unmarked) [Example B171, 5-(5-(7-cyclopropyl-1,3-dimethyl-2-oxo-1,2-dihydroquinolin-5-yl)-5,6,7,8-tetrahydropyrido [3,2-d]pyrimidin-2-yl)-N-(3-(4-(2,6-dioxo-piperidin-3-yl)benzofuran-2-yl)prop-2-yn-1-yl)picolinamide]"
> 80%,10 to 99 nM,"Cc1cc2c(N3CCCc4nc(-c5ccc(C(=O)NCC#Cc6cc7c(C8CCC(=O)NC8=O)cccc7o6)nc5)ncc43)nc(N3CC4CC4C3)cc2n(C)c1=O (centres unmarked) [Example B172, 5-(5-(7-(3-azabicyclo[3.1.0]hexan-3-yl)-1,3-dimethyl-2-oxo-1,2-dihydro-1,6-naphthyridin-5-yl)-5,6,7,8-tetrahydropyrido[3,2-d]pyrimidin-2-yl)-N-(3-(4-(2,6-dioxopiperidin-3-yl)benzofuran-2-yl)prop-2-yn-1-yl)picolinamide]"

# More lines, now with the values behind:
Structure (SMILES),Dmax,DC50
"CCc1cc(N2CCCc3cc(-c4ccc(C(=O)NCC#Cc5ccc6occ(C7CCC(=O)NC7=O)c6c5)nc4)c(F)cc32)c2cc(C)c(=O)n(C)c2c1 (centres unmarked) [Example B133, N-(3-(3-(2,6-dioxopiperidin-3-yl)benzofuran-5-yl)prop-2-yn-1-yl)-5-(7′-ethyl-7-fluoro-1′,3′-dimethyl-2′-oxo-1′,2′,3,4-tetrahydro-2H-[1,5′-biquinolin]-6-yl)picolinamide]",> 80%,1 to 9.9 nM
"Cc1cc2c(N3CCCc4cc(-c5ccc(C(=O)NCC#Cc6ccc7occ(C8CCC(=O)NC8=O)c7c6)nc5)c(F)cc43)cc(C(C)C)cc2n(C)c1=O (centres unmarked) [Example B134, N-(3-(3-(2,6-dioxopiperidin-3-yl)benzofuran-5-yl)prop-2-yn-1-yl)-5-(7-fluoro-7′-isopropyl-1′,3′-dimethyl-2′-oxo-1′,2′,3,4-tetrahydro-2H-[1,5′-biquinolin]-6-yl)picolinamide]",> 80%,10 to 99 nM
"Cc1cc(-c2ncc(N(C)c3cc(C4CCOCC4)cc4c3cc(C)c(=O)n4C)nn2)cnc1C(=O)NCC#Cc1ccc2occ(C3CCC(=O)NC3=O)c2c1 (centres unmarked) [Example B135, 5-(6-((1,3-dimethyl-2-oxo-7-(tetrahydro-2H-pyran-4-yl)-1,2-dihydroquinolin-5-yl) (methyl)amino)-1,2,4-triazin-3-yl)-N-(3-(3-(2,6-dioxopiperidin-3-yl)benzofuran-5-yl)prop-2-yn-1-yl)-3-methylpicolinamide]",< 20%,> 1000 nM
"Cc1cc2c(N3CCCc4nc(-c5ccc(C(=O)NCC#Cc6ccc7occ(C8CCC(=O)NC8=O)c7c6)nc5)ncc43)nc(N3CC[Si](C)(C)CC3)cc2n(C)c1=O (centres unmarked) [Example B139, 5-(5-(7-(4,4-dimethyl-1,4-azasilinan-1-yl)-1,3-dimethyl-2-oxo-1,2-dihydro-1,6-naphthyridin-5-yl)-5,6,7,8-tetrahydropyrido[3,2-d]pyrimidin-2-yl)-N-(3-(3-(2,6-dioxopiperidin-3-yl)benzofuran-5-yl)prop-2-yn-1-yl)picolinamide]",60 to 79%,100 to 999 nM
"Cc1cc2c(N3CCCc4cc(-c5ccc(C(=O)NCC#Cc6ccc7occ(C8CCC(=O)NC8=O)c7c6)nc5)ccc43)cc(C3CCOCC3)cc2n(C)c1=O (centres unmarked) [Example B140, 5-(1′,3′-dimethyl-2′-oxo-7′-(tetrahydro-2H-pyran-4-yl)-1′,2′,3,4-tetrahydro-2H-[1,5′-biquinolin]-6-yl)-N-(3-(3-(2,6-dioxopiperidin-3-yl)benzofuran-5-yl)prop-2-yn-1-yl) picolinamide]",60 to 79%,1 to 9.9 nM
"Cc1cc2c(N3CCCc4cc(-c5ccc(C(=O)NCC#Cc6ccc7occ(C8CCC(=O)NC8=O)c7c6)nc5)c(F)cc43)cc(C3CCOCC3)cc2n(C)c1=O (centres unmarked) [Example B143, N-(3-(3-(2,6-dioxopiperidin-3-yl)benzofuran-5-yl)prop-2-yn-1-yl)-5-(7-fluoro-1′,3′-dimethyl-2′-oxo-7′-(tetrahydro-2H-pyran-4-yl)-1′,2′,3,4-tetrahydro-2H-[1,5′-biquinolin]-6-yl) picolinamide]",> 80%,1 to 9.9 nM
"CCc1cc(-c2ncc3c(n2)CCCN3c2cc(C3CCOCC3)cc3c2cc(C)c(=O)n3C)cnc1C(=O)NCC#Cc1ccc2occ(C3CCC(=O)NC3=O)c2c1 (centres unmarked) [Example B144, 5-(5-(1,3-dimethyl-2-oxo-7-(tetrahydro-2H-pyran-4-yl)-1,2-dihydroquinolin-5-yl)-5,6,7,8-tetrahydropyrido[3,2-d]pyrimidin-2-yl)-N-(3-(3-(2,6-dioxopiperidin-3-yl)benzofuran-5-yl)prop-2-yn-1-yl)-3-ethylpicolinamide]",> 80%,1 to 9.9 nM
"Cc1cc2c(N3CCOc4cc(-c5ccc(C(=O)NCC#Cc6ccc7occ(C8CCC(=O)NC8=O)c7c6)nc5)c(F)cc43)cccc2n(C)c1=O (centres unmarked) [Example B145, 5-(4-(1,3-dimethyl-2-oxo-1,2-dihydroquinolin-5-yl)-6-fluoro-3,4-dihydro-2H-benzo[b][1,4]oxazin-7-yl)-N-(3-(3-(2,6-dioxopiperidin-3-yl)benzofuran-5-yl)prop-2-yn-1-yl) picolinamide]",> 80%,1 to 9.9 nM
"COC1CN(c2cc3c(cc(C)c(=O)n3C)c(-c3cccc4cc(-c5ccc(C(=O)NCC#Cc6ccc7occ(C8CCC(=O)NC8=O)c7c6)nc5)ncc34)n2)C1 (centres unmarked) [Example B146, N-(3-(3-(2,6-dioxopiperidin-3-yl)benzofuran-5-yl)prop-2-yn-1-yl)-5-(8-(7-(3-methoxyazetidin-1-yl)-1,3-dimethyl-2-oxo-1,2-dihydro-1,6-naphthyridin-5-yl)isoquinolin-3-yl) picolinamide]",> 80%,1 to 9.9 nM
"COc1cc(N2CCOc3cc(-c4ccc(C(=O)NCC#Cc5ccc6occ(C7CCC(=O)NC7=O)c6c5)nc4)c(F)cc32)c2cc(C)c(=O)n(C)c2c1 (centres unmarked) [Example B147, N-(3-(3-(2,6-dioxopiperidin-3-yl)benzofuran-5-yl)prop-2-yn-1-yl)-5-(6-fluoro-4-(7-methoxy-1,3-dimethyl-2-oxo-1,2-dihydro-quinolin-5-yl)-3,4-dihydro-2H-benzo[b][1,4]oxazin-7-yl)picolinamide]",> 80%,1 to 9.9 nM
"CCc1cc(N2CCOc3cc(-c4ccc(C(=O)NCC#Cc5ccc6occ(C7CCC(=O)NC7=O)c6c5)nc4)c(F)cc32)c2cc(C)c(=O)n(C)c2c1 (centres unmarked) [Example B149, N-(3-(3-(2,6-dioxopiperidin-3-yl)benzofuran-5-yl)prop-2-yn-1-yl)-5-(4-(7-ethyl-1,3-dimethyl-2-oxo-1,2-dihydroquinolin-5-yl)-6-fluoro-3,4-dihydro-2H-benzo[b][1,4]oxazin-7-yl)picolinamide]",> 80%,1 to 9.9 nM
"Cc1cc2c(N3CCCc4nc(-c5ccc(C(=O)NCC#Cc6ccc7occ(C8CCC(=O)NC8=O)c7c6)nc5)ncc43)cc(C3CCN(C(=O)C4CCOCC4)CC3)cc2n(C)c1=O (centres unmarked) [Example B150, 5-(5-(1,3-dimethyl-2-oxo-7-(1-(tetrahydro-2H-pyran-4-carbonyl)piperidin-4-yl)-1,2-dihydro-quinolin-5-yl)-5,6,7,8-tetrahydropyrido[3,2-d]pyrimidin-2-yl)-N-(3-(3-(2,6-dioxopiperidin-3-yl)benzofuran-5-yl)prop-2-yn-1-yl) picolinamide]",60 to 79%,1 to 9.9 nM
